Read-outs that look alike come from different tables or passages of the source.
Key:
Format in all cases: cell-based, Lawsonia intracellularis
[1] = test system: L. intracellularis isolate VP1; details: cysteine HCl 0.02%; for Bacteria in the Supernatant / Bacteria in the Supernatant: motility / Monolayer infection by staining: McCoy cells; for Monolayer infection by staining: day 6 or 7 post-infection; for Flagella in lysed material by fluorescent antibody (FITC) staining: hydrochloride
Method: In a separate set of experiments, L. intracellularis isolate VP1 (passage 23) was used to infect McCoy cell monolayers. The cells were then placed in a microaerophilic environment for 15 days. […] Flasks were re-fed with fresh media. […] Monolayer cells from the flask were lysed using water. Briefly, media from the flask was removed, and approximately 16 ml of sterile de-ionized water was added to the flask, followed by incubation at 37° C. for 10 min. […] The flask was then gently tapped against the palm of the hand, and a drop of the lysed material was observed under a microscope. […] A 4.25% NaCl solution was immediately added to bring the media to near normal physiological osmolarity.
The lysed material was centrifuged at 3200×g for 15 minutes. The resultant pellet was re-suspended in 41 ml of DMEM with 7% FBS, and was used to infect fresh McCoy cells. 35 ml of this lysed L. intracellularis infective material was added to one 175 cm^2 flask seeded with McCoy cells, and 0.5 ml to one seeded Trac bottle. Both the flask and the Trac bottle were evacuated with a vacuum at 15 psi of Hg, and then purged with pure hydrogen. 5 ml and 0.5 ml of the material were also used to infect McCoy cells seeded in a 25 cm^2 flask and a Trac bottle, respectively. Following evacuation with 15 psi of vacuum and a nitrogen flush, a 5× stock solution of cysteine HCl was added to the 25 cm^2 flask and the corresponding Trac bottle to a final concentration of 0.02%. All flasks and Trac bottles were incubated at 37° C. in an incubator containing 8.0% oxygen, 8.8% carbon dioxide and 83.2% nitrogen. Re-feeding was carried out as described above; the flask and Trac bottle which received cysteine HCl were also refed to the same final concentration (0.02%).
The infection was monitored on day 6 or 7 post-infection by immunoperoxidase staining of the corresponding cover slips as described above. Infection was also monitored by flourescent antibody staining. Briefly, cell lysate was collected on a Cytospin microscopic slide using a Cytofunnel sample chamber (Shandon Inc.; Pittsburg, Pa.) and centrifugation for 10 min at 1500 rpm. The sample was air dried and fixed in acetone for 30 sec. The smear was then covered with a 1:400 dilution of rabbit anti-L. intracellularis polyclonal serum and incubated at 37° C. for 30 min. The slide was washed gently with PBS, and a 1:20 dilution of fluorescein-labeled Goat anti-rabbit IgG (H+L; Kirkegaard & Perry Labs) was added to the smear, and the slide was incubated at 37° C. for 30 min. It was then observed under a fluorescent microscope.

[2] = test system: L. intracellularis swine isolate VP1; details: McCoy cells; for Monolayer infection by immunoperoxidase staining: day 5 or 6 post-infection
Method: L. intracellularis swine isolate VP1 (passage 17) was used to infect McCoy cells. McCoy cells were seeded in tissue culture flasks at 1.25×10^5 cells per 25 cm^2 flask, and 1.25×10^4 cells per Trac bottle (Bibby Sterilin Ltd.; Staffordshire, United Kingdom), in DMEM supplemented with 7% fetal bovine serum (FBS). The Trac bottle was used to monitor simulative infection in the flask. The flasks and Trac bottles were incubated overnight at 37° C. in a humidified incubator with 5% CO2. The following day, cells in both the flask and Trac bottle were infected with the L. intracellularis swine isolate (passage 17) in fresh DMEM with 7% FBS. After the addition of L. intracellularis, the flasks and Trac bottles were treated in three different ways. One flask and the corresponding Trac bottle were evacuated at 15 psi of Hg vacuum and purged with pure hydrogen. A second flask and the corresponding Trac bottle were neither evacuated nor purged with hydrogen, but instead received a supplement of cysteine hydrochloride (Sigma, C-7477; St. Louis, Mo.), β-NAD and phoshatidylcholine to a final concentration of 0.01%, 5 mM and 100 ng/ml, respectively, during the first two passages, and only cysteine hydrochlride (0.02% final concentration) during the later passages. The third flask and the corresponding Trac bottle were not evacuated or purged with hydrogen, nor received any supplements. All flasks and Trac bottles were incubated at 37° C. in an incubator containing 8.0 % O2 and 8.8% CO2 and 83.2% N2. On day 2 and 5 post-infection, 50% of the media from all flasks and Trac bottles was replaced with fresh DMEM with 5% FBS with or without cysteine hydrochloride, β-NAD and phoshatidylcholine.
On day 5 or 6 post-infection, the monolayers in the tissue culture flasks were monitored by immunoperoxidase staining of the corresponding Trac bottle cover slip. Briefly, the cover slip from the Trac bottle was removed and washed gently with Phosphate Buffered Saline (PBS), and bound to a microscope slide using a permanent glue. The cover slip then was fixed in acetone for 30 sec at room temperature. Rabbit anti-L. intracellularis polyclonal antibody, diluted 1:400 in PBS, was added to cover the entire cover slip, which was then incubated in a humidified environment at 37° C. for 30 min. The cover slip was washed gently with PBS and a 1:20 dilution of peroxidase-conjugated goat anti-rabbit IgG (H+L; Kirkegaard & Perry Laboratories, Inc.; Gaithersburg, Md.) was added to the cover slip and incubated for 30 min at 37° C. Peroxidase substrate solution was prepared by dissolving 10 mg of 3,3′-Diaminobenzidine (DAB; Sigma-Aldrich; St. Louis, Mo.) in 20 ml of PBS. After filtration through Whatman 113V filter paper (Whatman International Ltd.; Kent, United Kingdom), 40 μl of 30% H2O2 was added to the dissolved substrate. The final substrate solution was added to the cover slip and incubated at room temperature for 5 min. After rinsing with tap water, the cover slip was counterstained for 30 sec using Modified Harris Hematoxylin Solution (Sigma-Aldrich). The stained slide then was rinsed with tap water and observed under a microscope. Infection of the McCoy cells was also assessed by microscopic viewing of the bacteria in the media within the flask.
The infected McCoy cells in the flask were lysed using a 0.1% potassium chloride (KCl) solution on day 6 or 7 post-infection. The lysed material was used to re-infect fresh McCoy cell monolayers in flasks and Trac bottles. Briefly, after removing the media from the flask, a 0.1% KCl solution was added (5 ml per 25 cm^2) and incubated at 37° C. for 5-10 min. The KCl solution was removed from the flask, and 2 ml of sucrose potassium glutamate (SPG; 0.218M sucrose, 0.0038M KH2PO4, 0.0072M K2H PO4, and 0.0049M potassium glutamate) with 5% FBS was added. A cell scraper was then used to remove the cells from the flask. They were then lysed by forcing them through a syringe fitted with a 18 ga needle. […]

[3] = test system: L. intracellularis hamster isolate STR; details: McCoy cells; day 5 post-infection; cysteine hydrochloride 0.02%
Method: The cells were incubated overnight at 37° C. in 5% CO2, and were infected the next day with ˜5×10^5 bacteria per 25 cm^2flask. The infected flasks and the 48-well plates were evacuated at 15 psi of Hg vacuum and purged with hydrogen. A second set of flasks and corresponding Trac bottles were evacuated and purged with pure nitrogen, and cysteine hydrochloride was added to a final concentration of 0.02%. The infected flasks and plates were incubated in a bi-gas incubator at 8.0% CO2, 8.8% O2 and 83.2% N2. The flasks were re-fed with 50% volume of media on day 2 and day 5 post-infection, using DMEM with 5% FBS. A determination of the degree of infection was made on day 5 using immunoperoxidase staining. Lysis and re-infection were carried out based on the extent of infection as monitored by immunostaining of 48-well plate infections (routinely on day 7 post-infection). The media supernatant was collected from the flasks and centrifuged at 3500 g for 30 minutes. The supernatant was discarded and the pellet resuspended in SPG with 5% FBS. The monolayers were washed with PBS, followed by the addition of water and incubation at 37° C. for 15 min, at which time cells began detaching from the flask. The cells were then lysed by passaging 4 to 5 times through a syringe fitted with an 18 ga needle. The lysate was centrifuged at 350 g for 5 min to pellet the cell nuclei. […]

[4] = test system: L. intracellularis (STR isolate); details: after 10 passages; McCoy cells; cysteine hydrochloride 0.02%, no hydrogen purge
Method: The bacteria were passaged by cell lysis. Supernatants and cell lysates were prepared from both flasks, as described earlier, and were used to infect fresh monolayers of McCoy cells seeded into 25 cm^2 or 75 cm^2 flasks at split ratios of 1:1 or 1:2, depending on the extent of infection as determined by immunostaining of the 48-well plate monolayers.
The 48-well plates infected with or without cysteine hydrochloride were fixed with 80% acetone on day 5 post-infection, and stained using the immunoperoxidase and immunofluorescence methods as described previously. The percent of McCoy cells infected using hydrogen gassing versus cysteine HCl was evaluated after each bacterial passage.

[5] = test system: L. intracellularis swine isolate PHE/MN-001; details: p49, after 9 passages, McCoy cells, cysteine hydrochloride 0.02%
Method: Two 75 cm^2 flasks were seeded in a similar manner as described for the hamster STR isolate, starting with 6×10^5 McCoy cells in DMEM with 7% FBS, and incubated overnight at 37° C. in 5% CO2. […] The following day, the flasks were infected using the supernatant and cell lysate from L. intracellularis (PHE/MN-001 isolate)-infected McCoy cells at passage 40. One flask was evacuated, supplemented with 0.02% cysteine hydrochloride, purged with hydrogen, and placed in the incubator. The second flask was supplemented with 0.02% cysteine hydrochloride and placed in the incubator without first purging using hydrogen. The two 48-well plates were infected with L. intracellularis in parallel with the two flasks, and once again served as controls for monitoring the infection and for immunostaining. The flasks and 48-well plates were incubated in the incubator at 8.0% CO2, 8.8% O2 and 83.2% N2. The flasks were re-fed with 50% volume of media on day 2 and day 5 post-infection using DMEM with 5% FBS.
The bacteria were passaged by cell lysis, as described in earlier. […] The percent of McCoy cells infected with cysteine hydrochloride and hydrogen gassing, as compared with cysteine HCl alone, was evaluated after each bacterial passage.

[6] = passage P18, Treatment 2 = cysteine HCl 0.01% + β-NAD 5 mM + phosphatidylcholine 100 ng/ml
[7] = passage P18, Treatment 2 = cysteine HCl 0.01% + β-NAD + phosphatidylcholine
[8] = passage P19, Treatment 2 = cysteine HCl 0.01% + β-NAD + phosphatidylcholine

In the case of `Cl.N[C@@H](CS)C(=O)O` [cysteine hydrochloride], the “Bacteria in the Supernatant” value ([1]; passage P25) is reported as “Slightly positive,”, the “Bacteria in the Supernatant: motility” value ([1]; passage P25) is reported as “highly motile” and the “Monolayer infection by staining” value ([1]; passage P26) is reported as 50-60% infection. The “L. intracellularis infection of McCoy cells compared to infection using hydrogen gassing” value [1] was “enhanced”, the “Viability of L. intracellularis” value ([1]; inactive culture after 15 days in microaerophilic environment) was “viability could be restored” and the “Flagella in lysed material by fluorescent antibody (FITC) staining” value ([1]; passage P25) was “elevated flagellar expression”. For the same compound, the “Flagella in lysed material by fluorescent antibody (FITC) staining” value ([1]; passage P25, listed as cysteine chloride) was “showed large numbers of flagella”, the “Bacteria in the Supernatant” value [2, 6] was “Slightly positive” and the “Monolayer infection by immunoperoxidase staining” value [2, 7] was “Little or no infection”. The “Monolayer infection by immunoperoxidase staining” value [2, 8] was 20%, the “Monolayer infection by immunoperoxidase staining” value ([2]; passage P20, cysteine HCl 0.02% only) was 30-40% (larger foci of and the “Bacteria in the Supernatant” value ([2]; passage P21, cysteine HCl 0.02% only) was “Highly positive”. The “Infection by immunoperoxidase staining of cover slips” value [3] was “about 20%”, the “Culture expansion from one 25 cm^2 flask (increase)” value [4] was 12 fold and the “Bacterial Counts (per ml supernatant)” value ([5]; Split Ratio 1:2) was 8.5 × 10^7 per ml supernatant. For the same compound, the “Bacterial Counts (per ml supernatant)” value ([5]; Split Ratio 1:4) was 5.8 × 10^7 per ml supernatant.

With `[HH]` [hydrogen, reference compound] the “Bacteria in the Supernatant” value ([1]; passage P25) was “Slightly positive,”, the “Bacteria in the Supernatant: motility” value ([1]; passage P25) was “Normal motilty” and the “Monolayer infection by staining” value ([1]; passage P25) was “Lesser infection (smaller and”. The “Bacteria in the Supernatant” value [2, 6] was “Positive”, the “Monolayer infection by immunoperoxidase staining” value [2, 7] was 60-70% and the “Monolayer infection by immunoperoxidase staining” value [2, 8] was “≧80%”. For the same compound, the “Bacteria in the Supernatant” value ([2]; passage P20) was “Highly positive”, the “Infection by immunoperoxidase staining of cover slips” value [3] was “about 20%” and the “Culture expansion from one 25 cm^2 flask (increase)” value [4] was 4 fold.
